Reference: patent US10766928B2, “Targeted conformationally-constrained kinked endosomal disrupting peptides” (priority 2012, dated 2020)
≈ marks a conversion by molar mass, not a printed value. Read-outs that look alike come from different tables or passages of the source. Non-standard residues stand in square brackets, D forms with d. Residues, ends and D or L forms follow the SMILES beside them. *: point of attachment. Pentanoyl(5-NH-cholesteryl) = CC(C)CCC[C@@H](C)[C@H]1CC[C@H]2[C@@H]3CC=C4C[C@@H](NCCCCC(=O)*)CC[C@]4(C)[C@H]3CC[C@]12C; Cholesteryloxycarbonyl = CC(C)CCC[C@@H](C)[C@H]1CC[C@H]2[C@@H]3CC=C4C[C@@H](OC(=O)*)CC[C@]4(C)[C@H]3CC[C@]12C; Palmitoyl = CCCCCCCCCCCCCCCC(=O)*; PEG3 = NCCOCCOCCOCCC(=O)O; Pra = C#CC[C@H](N)C(=O)O; Aib = CC(C)(N)C(=O)O; Ahx = NCCCCCC(=O)O; Ava = NCCCCC(=O)O; βAla = NCCC(=O)O

Legend:
[1] = Thermodynamic solubility in PBS (pH 7.4); type: physicochemical; conditions: for solubility thermodynamic at 24 h / solubility at 24 h: phosphate buffered saline, read-out: Solubility (aq.); for solubility thermodynamic at 24 h: pH 7.4, Table 1; for solubility thermodynamic at 24 h / solubility at 24 h / Solubility (aq., μM): PBS pH 7.4, 24 hours at 22° C., ±S.D.; for solubility at 24 h / Solubility (aq., μM): Table 1
Description: Values in parentheses represent 95% confidence intervals. N.D., not determined.
Measurements represent duplicate or more replicates, with active peptides subjected to multiple replicates. ND: not determined. The peptide was non-toxic and soluble in cell culture medium at this concentration.

[2] = system: endosomes of Jurkat lymphocytes; assay: Endosome disruption in Jurkat lymphocytes: release of carboxyfluorescein from disulfide probe Compound 2, flow cytometry
Summary of the method: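 Human Jurkat cells treated with compounds plus disulfide probe Compound 2 (2.5 μM) for 14 h at 37 °C. Cytoplasmic release of pH-sensitive fluorophore Compound 3 quantified by flow cytometry. IC50 by non-linear regression; efficacy as % fluorescence change relative to Compound 1 maximum (100%).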

Jurkat lymphocytes = system: Jurkat lymphocytes
Procedure: The effects of the compounds of the invention on human Juikat leukemia cells were evaluated using flow cytometry-based assays of potency, efficacy, and toxicity. […] Analysis of flow cytometry data by non-linear regression was used to determine IC50 values for potency with the efficacy expressed as a percentage. […] Dose-dependent effects on cellular viability after 48 h at 37° C. in culture were also measured by flow cytometry.
The # represents the compound number in accordance with Tables A, B, and C. Concentrations of compound stock solutions were determined by absorbance measurements at 280 nm. Efficacy was determined as % change in cellular fluorescence relative to the maximal response of Compound 1, defined as 100%. Potencies and efficacies in Jurkat lymphocytes were measured by flow cytometry after treatment of cells with the compounds listed and the fluorescent probe Compound 2 (2.5 μM) for 14 hours. Toxicity to this cell line was determined by flow cytometry analysis of light scattering and counterstaining with PI after treatment for 48 h at 37° C. in culture. […] N.D., not determined.

CC(C)CCC[C@@H](C)[C@H]1CC[C@H]2[C@@H]3CC=C4C[C@@H](NCCCCC(=O)NCCC(=O)N[C@@H](CCC(=O)O)C(=O)N[C@@H](CCC(=O)O)C(=O)NCCCCCC(=O)NCCCCCC(=O)NC(C)(C)C(=O)NC(C)(C)C(=O)NC(C)(C)C(=O)NC(C)(C)C(=O)N[C@@H](Cc5ccc(O)cc5)C(=O)N[C@@H](Cc5ccc(O)cc5)C(=O)N[C@@H](C)C(=O)N[C@@H](Cc5ccc(O)cc5)C(=O)N[C@@H](Cc5ccc(O)cc5)C(=O)N5CCC[C@H]5C(=O)N5CCC[C@H]5C(=O)N[C@H](C(=O)N[C@H](C(N)=O)C(C)C)C(C)C)CC[C@]4(C)[C@H]3CC[C@]12C [Compound 25, R = BEEXXUUUUYYAYYPPVV-CONH2] ({Pentanoyl(5-NH-cholesteryl)-βAla}-EE[Ahx][Ahx][Aib][Aib][Aib][Aib]YYAYYPPVV-NH2)
solubility thermodynamic at 24 h [1]: 22 ± 1 µM (≈ 54.9 µg/mL) | EC50 ([2]; 14 h): 90 nM | IC50 (Jurkat lymphocytes; 48 h): 9000 nM

CC(C)CCC[C@@H](C)[C@H]1CC[C@H]2[C@@H]3CC=C4C[C@@H](NCCCCC(=O)NCCC(=O)N[C@@H](CCC(=O)O)C(=O)N[C@@H](CCC(=O)O)C(=O)NCCOCCOCCOCCC(=O)NCCOCCOCCOCCC(=O)NC(C)(C)C(=O)NC(C)(C)C(=O)NC(C)(C)C(=O)NC(C)(C)C(=O)N[C@@H](Cc5c[nH]c6ccccc56)C(=O)N[C@@H](Cc5c[nH]c6ccccc56)C(=O)N[C@@H](C)C(=O)N[C@@H](Cc5ccc(O)cc5)C(=O)N[C@@H](Cc5c[nH]c6ccccc56)C(=O)N5CCC[C@H]5C(=O)N5CCC[C@H]5C(=O)N[C@H](C(=O)N[C@@H](C)C(N)=O)C(C)C)CC[C@]4(C)[C@H]3CC[C@]12C [Compound 26, R = BEEOOUUUUWWAYWPPVA-CONH2] ({Pentanoyl(5-NH-cholesteryl)-βAla}-EE[PEG3][PEG3][Aib][Aib][Aib][Aib]WWAYWPPVA-NH2)
solubility at 24 h [1]: 14 µM (≈ 38.1 µg/mL) | EC50 ([2]; 14 h): 100 nM | IC50 (Jurkat lymphocytes; 48 h): 8000 nM

CC(C)CCC[C@@H](C)[C@H]1CC[C@H]2[C@@H]3CC=C4C[C@@H](NCCCCC(=O)NCCC(=O)N[C@@H](CCC(=O)O)C(=O)N[C@@H](CCC(=O)O)C(=O)NCCOCCOCCOCCC(=O)NCCOCCOCCOCCC(=O)NC(C)(C)C(=O)NC(C)(C)C(=O)NC(C)(C)C(=O)NC(C)(C)C(=O)N[C@@H](Cc5ccc(O)cc5)C(=O)N[C@@H](Cc5ccc(O)cc5)C(=O)N[C@@H](C)C(=O)N[C@@H](Cc5ccc(O)cc5)C(=O)N[C@@H](Cc5ccc(O)cc5)C(=O)N5CCC[C@H]5C(=O)N5CCC[C@H]5C(=O)N[C@H](C(=O)N[C@H](C(N)=O)C(C)C)C(C)C)CC[C@]4(C)[C@H]3CC[C@]12C [Compound 28, R = BEEOOUUUUYYAYYPPVV-CONH2] ({Pentanoyl(5-NH-cholesteryl)-βAla}-EE[PEG3][PEG3][Aib][Aib][Aib][Aib]YYAYYPPVV-NH2)
solubility thermodynamic at 24 h [1]: 63 ± 28 µM (≈ 169 µg/mL) | EC50 ([2]; 14 h): 60 nM | IC50 (Jurkat lymphocytes; 48 h): 3000 nM

CC(C)CCC[C@@H](C)[C@H]1CC[C@H]2[C@@H]3CC=C4C[C@@H](NCCCCC(=O)NCCC(=O)N[C@@H](CCC(=O)O)C(=O)N[C@@H](CCC(=O)O)C(=O)NCCOCCOCCOCCC(=O)NCCOCCOCCOCCC(=O)NC(C)(C)C(=O)NC(C)(C)C(=O)NC(C)(C)C(=O)NC(C)(C)C(=O)N[C@@H](Cc5ccc(O)cc5)C(=O)N[C@@H](Cc5ccc(O)cc5)C(=O)N[C@@H](Cc5ccc(O)cc5)C(=O)N[C@@H](Cc5ccc(O)cc5)C(=O)N[C@@H](Cc5ccc(O)cc5)C(=O)N5CCC[C@H]5C(=O)N5CCC[C@H]5C(=O)N[C@H](C(=O)N[C@H](C(N)=O)C(C)C)C(C)C)CC[C@]4(C)[C@H]3CC[C@]12C [Compound 29, R = BEEOOUUUUYYYYYPPVV-CONH2] ({Pentanoyl(5-NH-cholesteryl)-βAla}-EE[PEG3][PEG3][Aib][Aib][Aib][Aib]YYYYYPPVV-NH2)
solubility thermodynamic at 24 h [1]: 90 ± 2 µM (≈ 249 µg/mL) | EC50 ([2]; 14 h): 80 nM | IC50 (Jurkat lymphocytes; 48 h): 3000 nM

C#CC[C@H](NC(=O)[C@H](CCC(=O)O)NC(=O)[C@H](CCC(=O)O)NC(=O)CCNC(=O)CCCCN[C@H]1CC[C@@]2(C)C(=CC[C@H]3[C@@H]4CC[C@H]([C@H](C)CCCC(C)C)[C@@]4(C)CC[C@@H]32)C1)C(=O)NCCOCCOCCOCCC(=O)NCCOCCOCCOCCC(=O)NC(C)(C)C(=O)NC(C)(C)C(=O)NC(C)(C)C(=O)NC(C)(C)C(=O)N[C@@H](Cc1ccc(O)cc1)C(=O)N[C@@H](Cc1ccc(O)cc1)C(=O)N[C@@H](C)C(=O)N[C@@H](Cc1ccc(O)cc1)C(=O)N[C@@H](Cc1ccc(O)cc1)C(=O)N1CCC[C@H]1C(=O)N1CCC[C@H]1C(=O)N[C@H](C(=O)N[C@H](C(N)=O)C(C)C)C(C)C [Compound 30, R = BEEZOOUUUUYYAYYPPVV-CONH2] ({Pentanoyl(5-NH-cholesteryl)-βAla}-EE[Pra][PEG3][PEG3][Aib][Aib][Aib][Aib]YYAYYPPVV-NH2)
Solubility (aq., μM) [1]: 3 ± 1 µM (≈ 8.32 µg/mL) | solubility thermodynamic at 24 h [1]: < 5 µM | EC50 ([2]; 14 h): 30 nM | IC50 (Jurkat lymphocytes; 48 h): 2000 nM

C#CC[C@H](NC(=O)[C@H](CCC(=O)O)NC(=O)[C@H](CCC(=O)O)NC(=O)CCNC(=O)CCCCN[C@H]1CC[C@@]2(C)C(=CC[C@H]3[C@@H]4CC[C@H]([C@H](C)CCCC(C)C)[C@@]4(C)CC[C@@H]32)C1)C(=O)NCCOCCOCCOCCC(=O)NCCOCCOCCOCCC(=O)NC(C)(C)C(=O)NC(C)(C)C(=O)NC(C)(C)C(=O)NC(C)(C)C(=O)N[C@@H](Cc1c[nH]c2ccccc12)C(=O)N[C@@H](Cc1c[nH]c2ccccc12)C(=O)N[C@@H](C)C(=O)N[C@@H](Cc1ccc(O)cc1)C(=O)N[C@@H](Cc1c[nH]c2ccccc12)C(=O)N1CCC[C@H]1C(=O)N1CCC[C@H]1C(=O)N[C@H](C(=O)N[C@@H](C)C(N)=O)C(C)C [Compound 31, R = BEEZOOUUUUWWAYWPPVA-CONH2] ({Pentanoyl(5-NH-cholesteryl)-βAla}-EE[Pra][PEG3][PEG3][Aib][Aib][Aib][Aib]WWAYWPPVA-NH2)
Solubility (aq., μM) [1]: 5 ± 1 µM (≈ 14.1 µg/mL) | solubility thermodynamic at 24 h [1]: < 5 µM | EC50 ([2]; 14 h): 80 nM | IC50 (Jurkat lymphocytes; 48 h): 4000 nM

CCCCCCCCCCCCCCCC(=O)NCCCCC(=O)NCCC(=O)N[C@@H](CCC(=O)O)C(=O)N[C@@H](CCC(=O)O)C(=O)NCCOCCOCCOCCC(=O)NCCOCCOCCOCCC(=O)NC(C)(C)C(=O)NC(C)(C)C(=O)NC(C)(C)C(=O)NC(C)(C)C(=O)N[C@@H](Cc1c[nH]c2ccccc12)C(=O)N[C@@H](Cc1c[nH]c2ccccc12)C(=O)N[C@@H](C)C(=O)N[C@@H](Cc1ccc(O)cc1)C(=O)N[C@@H](Cc1c[nH]c2ccccc12)C(=O)N1CCC[C@H]1C(=O)N1CCC[C@H]1C(=O)N[C@H](C(=O)N[C@@H](C)C(N)=O)C(C)C [Compound 32, R′ - BEEOOUUUUWWAYWPPVA-CONH2] ({Palmitoyl-Ava-βAla}-EE[PEG3][PEG3][Aib][Aib][Aib][Aib]WWAYWPPVA-NH2)
Solubility in PBS relative to Compound 26 ([1]; PBS): sixtyfold more soluble | solubility at 24 h [1]: 856 µM (≈ 2220 µg/mL) | Efficacy (% of max. 1) ([2]; Table 1, % change in cellular fluorescence relative to maximal response of Compound 1 (100%), Jurkat, 14 hours): 121% | Potency relative to Compound 26 ([2]; palmitic acid derivative vs cholesterylamine): sevenfold less potent | EC50 ([2]; read-out: Potency (EC50), Table 1, Jurkat lymphocytes, probe Compound 2 (2.5 μM), 14 hours, 95% confidence interval in neighbouring cell): 700 nM | IC50 (Jurkat lymphocytes; read-out: Toxicity (IC50), Table 1, Jurkat lymphocytes, 48 h at 37° C.): 16000 nM

C#CC[C@H](NC(=O)CCNC(=O)CCNC(=O)O[C@H]1CC[C@@]2(C)C(=CC[C@H]3[C@@H]4CC[C@H]([C@H](C)CCCC(C)C)[C@@]4(C)CC[C@@H]32)C1)C(=O)NCCOCCOCCOCCC(=O)NCCOCCOCCOCCC(=O)NC(C)(C)C(=O)NC(C)(C)C(=O)NC(C)(C)C(=O)NC(C)(C)C(=O)N[C@@H](Cc1c[nH]c2ccccc12)C(=O)N[C@@H](Cc1c[nH]c2ccccc12)C(=O)N[C@@H](C)C(=O)N[C@@H](Cc1ccc(O)cc1)C(=O)N[C@@H](Cc1c[nH]c2ccccc12)C(=O)N1CCC[C@H]1C(=O)N1CCC[C@H]1C(=O)N[C@H](C(=O)N[C@@H](C)C(N)=O)C(C)C [Compound 33, R″ = BZOOUUUUWWAYWPPVA-CONH2] ({Cholesteryloxycarbonyl-βAla-βAla}-[Pra][PEG3][PEG3][Aib][Aib][Aib][Aib]WWAYWPPVA-NH2)
solubility at 24 h [1]: 2 µM (≈ 5.14 µg/mL) | EC50 ([2]; 14 h): 130 nM | IC50 (Jurkat lymphocytes; 48 h): > 100000 nM

CC(C)CCC[C@@H](C)[C@H]1CC[C@H]2[C@@H]3CC=C4C[C@@H](OC(=O)NCCC(=O)NCCC(=O)N[C@@H](CCC(=O)O)C(=O)N[C@@H](CCC(=O)O)C(=O)NCCOCCOCCOCCC(=O)NCCOCCOCCOCCC(=O)NC(C)(C)C(=O)NC(C)(C)C(=O)NC(C)(C)C(=O)NC(C)(C)C(=O)N[C@@H](Cc5c[nH]c6ccccc56)C(=O)N[C@@H](Cc5c[nH]c6ccccc56)C(=O)N[C@@H](C)C(=O)N[C@@H](Cc5ccc(O)cc5)C(=O)N[C@@H](Cc5c[nH]c6ccccc56)C(=O)N5CCC[C@H]5C(=O)N5CCC[C@H]5C(=O)N[C@H](C(=O)N[C@@H](C)C(N)=O)C(C)C)CC[C@]4(C)[C@H]3CC[C@]12C [Compound 34, R″ = BEEOOUUUUWWAYWPPVA-CONH2] ({Cholesteryloxycarbonyl-βAla-βAla}-EE[PEG3][PEG3][Aib][Aib][Aib][Aib]WWAYWPPVA-NH2)
solubility at 24 h [1]: 405 µM (≈ 1110 µg/mL) | EC50 ([2]; 14 h): 100 nM | IC50 (Jurkat lymphocytes; 48 h): 17000 nM
